# Marks after values point to notes of the source that are not given here.
# Columns and labels:
# [1] = test system: HIV-1 Tat (rTat, AA 1-72 variants); test: Anti-Tat serum antibody titer (ELISA on rTat) after immunization of mice; format: in vivo, mouse; details: for Titer, GMT: mice, 1.0 mg/mouse IP; for 4 week anti-Tat titer GMT: Mouse
# Procedure: (§1) Immunogens prepared as described in Example 1 were taken up in buffered saline and injected IP in mice and rats, and SC in rabbits. Unless otherwise stated mice were immunized IP with 1 mg of Immunogen at Day 0 and Week 2 and serums were obtained at Week 4 for titration. Other regimens and species were as noted in the figures.
# (§2) Serums were assayed to determine anti-Tat titers by conventional ELISA methods. Briefly, Maxisorp Immuno plates were coated with 2 ng/well rTat and incubated at 22° C. for 1 hour or 4° C. overnight. After thorough washing with 0.1% triton X 100 buffer, blocking with 1% bovine serum albumin (BSA) and rewashing, serum dilutions were applied and incubated at 22° C. for 1 hour. After incubation, the plates were thoroughly washed with triton-X 100 buffer again and 1/10,000 goat anti-mouse IgG-horseradish peroxidase (HRP) conjugate (or the appropriate reagent for rat or rabbit) was applied. The plates were then incubated for 1 hour at 22° C. then washed thoroughly and developed with ABTS for 45 minutes at room temperature on a shaker table. Absorbance was measured at 405 nm. Control wells lacking serum were measured and the titration endpoint was the reciprocal of the […] dilution with an OD greater than mean+8 SDs.
# (§3) Animals were purchased from Harlan Laboratories and acclimated at Molecular Diagnostic Services, Inc., for at least one week before immunization. Both BALBc and C57BL6/BALBc F1 mice were used. Lewis rats were used as indicated. Immunogens prepared as described in Example 1 were taken up in buffered saline and injected IP in mice and rats, and administered subcutaneously in Cynomolgous macaque. Animals were immunized with immunogen at Day 0 and Week 2 (day 14) and serums were obtained at Week 4 (day 28) for titration. Doses/animal are noted in Table 4, along with their anti-Tat titers.
# Animals were purchased from Harlan Laboratories and acclimated at Molecular Diagnostic Services, Inc., for at least one week before immunization. Both BALBc and C57BL6/BALBc F1 mice were used. Pam2C-capped immunogens prepared as described in Example 1 were taken up in buffered saline and injected IP. Mice were immunized with 3 injections of 1.0 mg/mouse Pam2C-capped immunogen with titrations before first boost and 2 weeks after each boost according to Table 5.
# [2] = test system: full length recombinant Tat; test: Tat depletion assay (rat immune serum on Protein A beads, sandwich ELISA); format: binding, HIV-1; details: said to be associated with the week 5 titers at all doses (0.1, 1, 10 mg)
# Procedure: Classical techniques to measure Tat depletion could not be used due to the lack of a membrane that retained antibody but permitted rTat diffusion. Briefly, this assay employs beads coated with antibody which are exposed to rTat and incubated. The antibody binds the Tat, depending upon the amount of Tat in solution. This assay thus measures how well the antibodies in the serum deplete the quantity of full length recombinant Tat.
# Control: Normal rat serum not-immunized with HIV-1 Tat B cell epitopes (10% or 1%) was bound to Protein A beads and washed.
# Samples: IgG of 10% and 1% serum of the immunized rat were bound to Protein A beads and washed. Undiluted serum has an anti-Tat titer of 1,000,000, as determined according to the method described in Example 3.
# Both the Protein A beads of control and of samples were then incubated at room temperature for 30 minutes with a rTat solution. After centrifugation, the levels of Tat in supernatant were measured with a sandwich ELISA. The free Tat after exposure to 10% or 1% immune serum protein A coated beads was expressed as a percentage of the free Tat after exposure to 10% or 1% normal […] serum protein A coated beads, respectively.
# [3] = test system: HIV-1 Tat (rTat, AA 1-72 variants); test: Anti-Tat serum antibody titer (ELISA on rTat) after immunization of rats; format: in vivo, rat; details: for GMT: rats, week 5, against rTat REK, FIG. 11; for 4 week anti-Tat titer GMT: Rat
# Procedure: as §1, §2, §3
# Three rats per group were immunized with a different dosage per group of a mixture of all of the experimental immunogens encompassed by the formula Pam3[…] -S-V-D-P-(R/K/N/S)-L-(E/D)-P-W-(K/N)-H-P-G-S-amide (SEQ ID NO: 63); Tat amino acid residue 7, 9, and 12 “wobbles”) with a polar charged sequence flanked by the linkers of the Pam3C (i.e., -S-K-K-K-K-S-). This immunogen is referred to as “TUTI-K4”. Each rat was administered a dose of either 0.1 mg TUTI-K4, or 1 mg TUTI-K4 or 10 mgs TUTI-K4 at day 0. Each rat was boosted with the same dose at week 3. The serum antibody titers for each rat were measured against the full length recombinant Tat (AA 1-72) REK variant protein.
# [4] = Toxicity of immunogen dose in mice; format: in vivo; details: Mouse; 10.0 mg/animal (400 mg/kg)
# Description: as §3
# HIV-1 Tat (rTat) = test: Anti-Tat serum antibody titer (ELISA on rTat) after immunization of Cynomolgous macaque; format: in vivo; details: 10.0 mg/animal subcutaneously at Day 0 and Week 2
# Procedure: as §2
# Animals were purchased from Harlan Laboratories and acclimated at Molecular Diagnostic Services, Inc., for at least one week before immunization. Both BALBc and C57BL6/BALBc F1 mice were used. Lewis rats were used as indicated. Immunogens prepared as described in Example 1 were taken up in buffered saline and injected IP in mice and rats, and administered subcutaneously in Cynomolgous macaque. […]
# [5] = 1.0 mg/animal IP at Day 0 and Week 2
substance,measurement,setting,value
Pam2C-SSQYIKANSKFIGITELSVDP-(R/K/N/S)-L-(E/D)-P-W-(K/N)-H-P-G-S-amide [Pam2-QYIK-TEP1],"Titer, GMT","[1]; prime boost D0, W2, W4, bleed week 2","140,000"
same,"Titer, GMT","[1]; prime boost D0, W2, W4, bleed week 4","950,000"
same,"Titer, GMT","[1]; prime boost D0, W2, W4, bleed week 6","750,000"
same,"Titer, GMT","[1]; prime boost D0, W3, W6, bleed week 3","160,000"
same,"Titer, GMT","[1]; prime boost D0, W3, W6, bleed week 5","930,000"
same,"Titer, GMT","[1]; prime boost D0, W3, W6, bleed week 8","3,300,000"
same,"Titer, GMT","[1]; prime boost D0, W4, W8, bleed week 4","70,000"
same,"Titer, GMT","[1]; prime boost D0, W4, W8, bleed week 6","400,000"
same,"Titer, GMT","[1]; prime boost D0, W4, W8, bleed week 10","3,000,000"
Pam3C-SKKKKSQYIKANSKFIGITEL -S-V-D-P-(R/K/N/S)-L-(E/D)-P-W-(K/N)-H-P-G-S-amide [TUTI-K4],reduction of free Tat levels,[2],greater than 99%
same,GMT,[3]; 0.1 mg at day 0 and week 3,"about 500,000"
same,GMT,[3]; 1 mg at day 0 and week 3,"about 1,000,000"
same,GMT,[3]; 10 mg at day 0 and week 3,"about 1,000,000"
Pam3C-SSQYIKANSKFIGITELSVDP-(R/K/N/S)-L-(E/D)-P-W-(K/N)-H-P-G-S-amide [Pam3-QYIK-TEP1],toxicity,[4],Lethal**
same,4 week anti-Tat titer GMT,[1]; [5],"120,000*"
same,4 week anti-Tat titer GMT,[1]; 3.0 mg/animal IP at Day 0 and Week 2,"220,000"
same,geometric mean antibody titers in serum,"[1]; single mouse, on all eight rTat (AA 1-72) immunodominant epitope variants, FIG. 2","> 100,000"
same,4 week anti-Tat titer GMT,[3]; [5],"170,000"
same,4 week anti-Tat titer GMT,[3]; 10.0 mg/animal IP at Day 0 and Week 2,"460,000"
same,antibody titers (GMT) in serum,"[3]; single rat, prime day 0, boosts at 3 and 6 weeks, bleed at 8 weeks, on all eight rTat (AA1-72) variants, FIG. 9","> 1,000,000"
same,4 week anti-Tat titer GMT,HIV-1 Tat (rTat),"900,000"

# Source: patent publication US7943140B2, “Compositions and methods for the treatment and prophylaxis of multiple strains and subtypes of HIV-1” (priority 2006, dated 2011)
